In patent publication US12723063B2, “GIPR-agonist compounds” (Eli Lilly and Company, priority 2019, dated 2026):
*1 amine or outer side, *2 acyl side, *3 side chain or, on linkers, in order; H or OH if unused. Where a SMILES comes first, the peptide text is derived from it. Side-chain parts run from the residue outwards. [ ]: non-standard residue; d: D form. The star is where a group is joined. C20 diacid = O=C(O)CCCCCCCCCCCCCCCCCCC(=O)*; γGlu = O=C(O)[C@H](CCC(=O)[*:2])N[*:1]; αMeF = C[C@](N)(Cc1ccccc1)C(=O)O; 4Pal = N[C@@H](Cc1ccncc1)C(=O)O; αMeL = CC(C)C[C@](C)(N)C(=O)O; AEEA = NCCOCCOCC(=O)O; Aib = CC(C)(N)C(=O)O

Experiments:
human GLP-1R = molecular target: T1, human GLP-1R (Homo sapiens, UniProt P43220); assay: [125I]-GLP-1 binding, SPA with WGA beads, 0.1% bacitracin; conditions: geometric mean, read-out: hGLP1R Ki
T1 construct: expressed in transfected cells; crude membranes
Summary of the method: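 Binding buffer was 25 mM HEPES pH 7.4 with 2.5 mM CaCl2, 1 mM MgCl2, 0.1% (w/v) bacitracin, 0.003% Tween-20 and EDTA-free protease inhibitors. Four-parameter regression gave IC50, converted to Ki (geometric mean, SEM, n independent days).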

human GIPR = molecular target: T2, human GIPR (Homo sapiens, UniProt P48546); assay: [125I]-GIP binding, SPA with WGA beads, 0.1% bacitracin; conditions: geometric mean, read-out: hGIPR Ki
T2 construct: expressed in transfected cells; crude membranes
T2 sequence (P48546 22-466): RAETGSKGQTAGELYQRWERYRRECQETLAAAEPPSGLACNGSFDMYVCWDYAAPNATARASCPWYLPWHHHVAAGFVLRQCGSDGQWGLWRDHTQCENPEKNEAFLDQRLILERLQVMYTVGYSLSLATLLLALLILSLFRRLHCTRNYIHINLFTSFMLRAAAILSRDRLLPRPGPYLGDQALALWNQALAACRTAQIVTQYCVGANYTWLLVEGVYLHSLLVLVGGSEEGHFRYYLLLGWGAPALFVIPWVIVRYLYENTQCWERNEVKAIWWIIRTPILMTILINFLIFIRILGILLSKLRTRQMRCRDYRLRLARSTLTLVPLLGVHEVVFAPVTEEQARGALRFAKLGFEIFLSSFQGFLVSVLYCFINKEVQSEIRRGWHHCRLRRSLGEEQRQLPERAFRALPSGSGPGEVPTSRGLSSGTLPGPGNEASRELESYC
Summary of the method: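 Ki values are geometric means (SEM, n independent days), derived from four-parameter nonlinear regression of IC50. Membranes came from hGIPR-expressing CHO cells.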

T1 sequence (P43220 24-463): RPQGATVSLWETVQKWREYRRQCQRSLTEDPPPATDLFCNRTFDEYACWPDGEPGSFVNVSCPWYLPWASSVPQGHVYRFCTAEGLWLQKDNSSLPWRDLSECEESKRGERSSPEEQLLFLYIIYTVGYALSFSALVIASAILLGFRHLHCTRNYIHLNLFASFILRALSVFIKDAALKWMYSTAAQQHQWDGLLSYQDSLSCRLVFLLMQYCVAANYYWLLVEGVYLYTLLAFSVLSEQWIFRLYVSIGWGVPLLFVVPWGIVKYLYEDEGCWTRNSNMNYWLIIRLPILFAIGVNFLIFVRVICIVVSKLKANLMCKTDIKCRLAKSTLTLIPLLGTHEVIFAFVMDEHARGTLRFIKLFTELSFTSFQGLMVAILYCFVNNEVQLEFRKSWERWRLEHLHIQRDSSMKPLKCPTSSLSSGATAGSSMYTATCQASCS

CC[C@H](C)[C@H](NC(=O)[C@H](Cc1ccccc1)NC(=O)[C@@H](NC(=O)CNC(=O)[C@H](CCC(=O)O)NC(=O)C(C)(C)NC(=O)[C@@H](N)Cc1ccc(O)cc1)[C@@H](C)O)C(=O)N[C@@H](CO)C(=O)N[C@@H](CC(=O)O)C(=O)N[C@@H](Cc1ccc(O)cc1)C(=O)N[C@@H](CO)C(=O)N[C@H](C(=O)N[C@@](C)(CC(C)C)C(=O)N[C@@H](CC(C)C)C(=O)N[C@@H](CC(=O)O)C(=O)N[C@@H](CCCCN)C(=O)N[C@@H](CCCCNC(=O)COCCOCCNC(=O)COCCOCCNC(=O)CC[C@H](NC(=O)CCCCCCCCCCCCCCCCCCC(=O)O)C(=O)O)C(=O)N[C@@H](Cc1c[nH]cn1)C(=O)N[C@@H](CCC(N)=O)C(=O)NC(C)(C)C(=O)N[C@@H](CC(=O)O)C(=O)N[C@@H](Cc1ccccc1)C(=O)N[C@H](C(=O)N[C@@H](CCC(=O)O)C(=O)N[C@@H](Cc1ccc(O)cc1)C(=O)N[C@@H](CC(C)C)C(=O)N[C@@H](CC(C)C)C(=O)N[C@@H](CCC(=O)O)C(=O)NCC(=O)NCC(=O)N1CCC[C@H]1C(=O)N[C@@H](CO)C(=O)N[C@@H](CO)C(=O)NCC(=O)N[C@@H](C)C(=O)N1CCC[C@H]1C(=O)N1CCC[C@H]1C(=O)N1CCC[C@H]1C(=O)N[C@@H](CO)C(N)=O)C(C)C)[C@@H](C)CC [Example 69] (H-Y[Aib]EGTFISDYSI[αMeL]LDKK([AEEA-AEEA-γGlu-C20 diacid])HQ[Aib]DFVEYLLEGGPSSGAPPPS-NH2) was tested, and the Ki (human GLP-1R) was 144 nM and the Ki (human GIPR) was 0.0406 nM.
For CC[C@H](C)[C@H](NC(=O)[C@H](Cc1ccccc1)NC(=O)[C@@H](NC(=O)CNC(=O)[C@H](CCC(=O)O)NC(=O)C(C)(C)NC(=O)[C@@H](N)Cc1ccc(O)cc1)[C@@H](C)O)C(=O)N[C@@H](CO)C(=O)N[C@@H](CC(=O)O)C(=O)N[C@@H](Cc1ccc(O)cc1)C(=O)N[C@@H](CO)C(=O)N[C@H](C(=O)N[C@@](C)(CC(C)C)C(=O)N[C@@H](CC(C)C)C(=O)N[C@@H](CC(=O)O)C(=O)N[C@@H](CCCCN)C(=O)N[C@@H](CCCCNC(=O)COCCOCCNC(=O)COCCOCCNC(=O)CC[C@H](NC(=O)CCCCCCCCCCCCCCCCCCC(=O)O)C(=O)O)C(=O)N[C@@H](Cc1c[nH]cn1)C(=O)N[C@@H](CCC(N)=O)C(=O)NC(C)(C)C(=O)N[C@@H](CC(=O)O)C(=O)N[C@@H](Cc1ccccc1)C(=O)N[C@H](C(=O)N[C@@H](CCC(=O)O)C(=O)N[C@@H](Cc1c[nH]c2ccccc12)C(=O)N[C@@H](CC(C)C)C(=O)N[C@@H](CC(C)C)C(=O)N[C@@H](CCC(=O)O)C(=O)N[C@H](C(=O)NCC(=O)N1CCC[C@H]1C(=O)N[C@@H](CO)C(=O)N[C@@H](CO)C(=O)NCC(=O)N[C@@H](C)C(=O)N1CCC[C@H]1C(=O)N1CCC[C@H]1C(=O)N1CCC[C@H]1C(=O)N[C@@H](CO)C(N)=O)[C@@H](C)O)C(C)C)[C@@H](C)CC [Example 71] (H-Y[Aib]EGTFISDYSI[αMeL]LDKK([AEEA-AEEA-γGlu-C20 diacid])HQ[Aib]DFVEWLLETGPSSGAPPPS-NH2), the Ki (human GLP-1R) was 347 nM and the Ki (human GIPR) was 0.0422 nM.
CC[C@H](C)[C@H](NC(=O)[C@H](Cc1ccccc1)NC(=O)[C@@H](NC(=O)CNC(=O)[C@H](CCC(=O)O)NC(=O)C(C)(C)NC(=O)[C@@H](N)Cc1ccc(O)cc1)[C@@H](C)O)C(=O)N[C@@H](CO)C(=O)N[C@@H](CC(=O)O)C(=O)N[C@@H](Cc1ccc(O)cc1)C(=O)N[C@@H](CO)C(=O)N[C@H](C(=O)N[C@@](C)(CC(C)C)C(=O)N[C@@H](CC(C)C)C(=O)N[C@@H](CC(=O)O)C(=O)N[C@@H](CCCCN)C(=O)N[C@@H](CCCCNC(=O)COCCOCCNC(=O)COCCOCCNC(=O)CC[C@H](NC(=O)CCCCCCCCCCCCCCCCCCC(=O)O)C(=O)O)C(=O)N[C@@H](Cc1c[nH]cn1)C(=O)N[C@@H](CCC(N)=O)C(=O)NC(C)(C)C(=O)N[C@@H](CCC(=O)O)C(=O)N[C@@H](Cc1ccccc1)C(=O)N[C@H](C(=O)N[C@@H](CCC(=O)O)C(=O)N[C@@H](Cc1ccncc1)C(=O)N[C@@H](CC(C)C)C(=O)N[C@@H](CC(C)C)C(=O)N[C@@H](C)C(=O)NCC(=O)NCC(=O)N1CCC[C@H]1C(=O)N[C@@H](CO)C(=O)N[C@@H](CO)C(=O)NCC(=O)N[C@@H](C)C(=O)N1CCC[C@H]1C(=O)N1CCC[C@H]1C(=O)N1CCC[C@H]1C(=O)N[C@@H](CO)C(N)=O)C(C)C)[C@@H](C)CC [Example 52] gave a Ki (human GLP-1R) of 128 nM and a Ki (human GIPR) of 0.0372 nM.
In the case of CC[C@H](C)[C@H](NC(=O)[C@H](CO)NC(=O)[C@H](Cc1ccc(O)cc1)NC(=O)[C@H](CC(=O)O)NC(=O)[C@H](CO)NC(=O)[C@@H](NC(=O)[C@](C)(Cc1ccccc1)NC(=O)[C@@H](NC(=O)CNC(=O)[C@H](CCC(=O)O)NC(=O)C(C)(C)NC(=O)[C@@H](N)Cc1ccc(O)cc1)[C@@H](C)O)[C@@H](C)CC)C(=O)N[C@@H](C)C(=O)N[C@@H](CC(C)C)C(=O)N[C@@H](CC(=O)O)C(=O)N[C@@H](CCCCN)C(=O)N[C@@H](CCCCNC(=O)COCCOCCNC(=O)COCCOCCNC(=O)CC[C@H](NC(=O)CCCCCCCCCCCCCCCCCCC(=O)O)C(=O)O)C(=O)N[C@@H](Cc1c[nH]cn1)C(=O)N[C@@H](CCC(N)=O)C(=O)NC(C)(C)C(=O)N[C@@H](CC(=O)O)C(=O)N[C@@H](Cc1ccccc1)C(=O)N[C@H](C(=O)N[C@@H](CCC(=O)O)C(=O)N[C@@H](Cc1ccncc1)C(=O)N[C@@H](CC(C)C)C(=O)N[C@@H](CC(C)C)C(=O)N[C@@H](CCC(=O)O)C(=O)N[C@@H](CCC(N)=O)C(=O)NCC(=O)N1CCC[C@H]1C(=O)N[C@@H](CO)C(=O)N[C@@H](CO)C(=O)NCC(=O)N[C@@H](C)C(=O)N1CCC[C@H]1C(=O)N1CCC[C@H]1C(=O)N1CCC[C@H]1C(=O)N[C@@H](CO)C(N)=O)C(C)C [Example 42] (H-Y[Aib]EGT[αMeF]ISDYSIALDKK([AEEA-AEEA-γGlu-C20 diacid])HQ[Aib]DFVE[4Pal]LLEQGPSSGAPPPS-NH2), the Ki (human GLP-1R) is reported as 563 nM and the Ki (human GIPR) is reported as 0.0392 nM.
With CC[C@H](C)[C@H](NC(=O)[C@H](CO)NC(=O)[C@H](Cc1ccc(O)cc1)NC(=O)[C@H](CC(=O)O)NC(=O)[C@H](CO)NC(=O)[C@@H](NC(=O)[C@](C)(Cc1ccccc1)NC(=O)[C@@H](NC(=O)CNC(=O)[C@H](CCC(=O)O)NC(=O)C(C)(C)NC(=O)[C@@H](N)Cc1ccc(O)cc1)[C@@H](C)O)[C@@H](C)CC)C(=O)N[C@@](C)(CC(C)C)C(=O)N[C@@H](CC(C)C)C(=O)N[C@@H](CC(=O)O)C(=O)N[C@@H](CCCCN)C(=O)N[C@@H](CCCCNC(=O)COCCOCCNC(=O)COCCOCCNC(=O)CC[C@H](NC(=O)CCCCCCCCCCCCCCCCCCC(=O)O)C(=O)O)C(=O)N[C@@H](Cc1c[nH]cn1)C(=O)N[C@@H](CCC(N)=O)C(=O)NC(C)(C)C(=O)N[C@@H](CCC(=O)O)C(=O)N[C@@H](Cc1ccccc1)C(=O)N[C@H](C(=O)N[C@@H](CCC(=O)O)C(=O)N[C@@H](Cc1ccncc1)C(=O)N[C@@H](CC(C)C)C(=O)N[C@@H](CC(C)C)C(=O)N[C@@H](C)C(=O)N[C@H](C(=O)NCC(=O)N1CCC[C@H]1C(=O)N[C@@H](CO)C(=O)N[C@@H](CO)C(=O)NCC(=O)N[C@@H](C)C(=O)N1CCC[C@H]1C(=O)N1CCC[C@H]1C(=O)N1CCC[C@H]1C(=O)N[C@@H](CO)C(N)=O)[C@@H](C)O)C(C)C [Example 61] (H-Y[Aib]EGT[αMeF]ISDYSI[αMeL]LDKK([AEEA-AEEA-γGlu-C20 diacid])HQ[Aib]EFVE[4Pal]LLATGPSSGAPPPS-NH2) the Ki (human GLP-1R) was 135 nM and the Ki (human GIPR) was 0.0665 nM.
